For 43 molecules, IC50 results are on record in patent publication US20250197382A1, “KIF18A INHIBITOR” (WIGEN BIOMEDICINE TECHNOLOGY (SHANGHAI) CO., LTD., priority 2022, published 2025).

SMILES strings stand for the structures.

In the experiment the target is Recombinant human KIF18A (1-467His-tagged) protein (Homo sapiens (Human), UniProt Q8NI77). Put plainly: KIF18A enzyme assay (microtubule-stimulated ATPase activity, ADP-Glo). The experiment is classed as biochemical. As to conditions: 30 nM KIF18A, ATP 75 μM, read-out: inhibitory activity against KIF18A IC50. An outline of the steps:
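Baculovirus-expressed human KIF18A (1-467, His-tagged; 30 nM) preincubated 15 min at room temperature with compound (22-point 2-fold series) in pH 7.5 Tris buffer containing 30 μg/mL pig microtubules and 1 μM paclitaxel.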
For orientation: ADP-Glo first removes unused ATP, then detects ADP through luciferase.

Recombinant human KIF18A (1-467His-tagged) protein, sequence (Q8NI77 1-467): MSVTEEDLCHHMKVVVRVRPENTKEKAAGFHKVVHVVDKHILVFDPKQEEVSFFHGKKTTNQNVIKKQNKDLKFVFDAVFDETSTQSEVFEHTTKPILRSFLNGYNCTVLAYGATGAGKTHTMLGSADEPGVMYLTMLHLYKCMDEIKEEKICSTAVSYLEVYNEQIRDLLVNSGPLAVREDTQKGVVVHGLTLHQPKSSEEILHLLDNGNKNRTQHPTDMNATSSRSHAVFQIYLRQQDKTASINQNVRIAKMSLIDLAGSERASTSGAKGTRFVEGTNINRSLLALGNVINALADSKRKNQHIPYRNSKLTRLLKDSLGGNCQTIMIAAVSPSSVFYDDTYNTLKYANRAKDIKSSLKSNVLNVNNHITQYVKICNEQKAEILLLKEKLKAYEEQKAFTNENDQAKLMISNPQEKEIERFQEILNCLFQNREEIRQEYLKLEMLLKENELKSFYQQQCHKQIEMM
Recombinant human KIF18A (1-467His-tagged) protein, sequence (P02550 whole entry partner): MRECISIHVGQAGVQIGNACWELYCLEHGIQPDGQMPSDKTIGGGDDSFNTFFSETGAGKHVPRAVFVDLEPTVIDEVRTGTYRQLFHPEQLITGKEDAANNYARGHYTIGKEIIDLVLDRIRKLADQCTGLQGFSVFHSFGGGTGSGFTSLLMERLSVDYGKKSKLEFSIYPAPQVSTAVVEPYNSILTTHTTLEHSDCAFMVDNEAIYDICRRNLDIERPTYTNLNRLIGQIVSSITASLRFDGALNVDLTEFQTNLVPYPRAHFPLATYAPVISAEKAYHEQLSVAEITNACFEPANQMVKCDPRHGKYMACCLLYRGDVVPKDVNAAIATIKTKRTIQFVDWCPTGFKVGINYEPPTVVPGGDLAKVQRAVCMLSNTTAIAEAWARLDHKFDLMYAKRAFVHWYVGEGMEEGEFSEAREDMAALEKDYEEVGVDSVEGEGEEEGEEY
Recombinant human KIF18A (1-467His-tagged) protein, sequence (P02554 whole entry partner): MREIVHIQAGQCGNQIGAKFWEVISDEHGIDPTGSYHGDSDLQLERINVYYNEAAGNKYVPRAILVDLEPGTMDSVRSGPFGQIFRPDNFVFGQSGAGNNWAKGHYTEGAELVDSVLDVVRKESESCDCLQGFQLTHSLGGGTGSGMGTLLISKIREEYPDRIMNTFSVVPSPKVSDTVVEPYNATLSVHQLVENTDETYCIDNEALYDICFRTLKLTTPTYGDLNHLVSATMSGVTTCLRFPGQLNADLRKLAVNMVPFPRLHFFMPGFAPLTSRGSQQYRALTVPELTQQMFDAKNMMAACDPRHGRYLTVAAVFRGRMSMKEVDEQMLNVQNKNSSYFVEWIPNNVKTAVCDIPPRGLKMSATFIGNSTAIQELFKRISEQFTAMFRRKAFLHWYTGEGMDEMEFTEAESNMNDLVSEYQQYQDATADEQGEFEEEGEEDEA

In general, IC50 refers to the point on the concentration scale where inhibition reaches its midpoint. In the case of `C[C@@H](CO)NS(=O)(=O)c1ccc(NC(=O)c2cc3ccn(C)c3c(N3CCC(F)(F)CC3)n2)c(N2CCC3(CC2)CC3)c1` [Compound 509], the concentration for half-maximal inhibition (IC50) is at most 100 nM.

As for `C[C@H](CO)S(=O)(=O)Nc1ccc(NC(=O)c2cc3c(c(N4CCC(F)(F)CC4)n2)OCC3)c(N2CCC3(CC2)CC3)c1` [Compound 110], the IC50 is at most 100 nM.

Consider `CC(C)(CO)Nc1cc(C(=O)Nc2ccc(NS(=O)(=O)CCO)cc2N2CCC3(CC2)CC3)cc2ccoc12` [Compound 171], for which the IC50 was at most 100 nM.

Consider `C[C@@H](CO)S(=O)(=O)Nc1ccc(NC(=O)c2cc3ccn(C)c3c(N3CCC(F)(F)CC3)n2)c(N2CCC3(CC2)CC3)c1` [Compound 493], for which the IC50 was at most 100 nM.

For the molecule `CN1CCc2cc(C(=O)Nc3ccc(NS(=O)(=O)CCO)cc3N3CCC4(CC3)CC4)nc(NC(C)(C)CO)c21` [Compound 363], the IC50 was at most 100 nM.

`O=C(Nc1ccc(NS(=O)(=O)CCO)cc1N1CCC2(CC1)CC2)c1cc2c(c(OCCC(F)(F)F)c1)OCC2` [Compound 37]: the IC50 is at most 100 nM.

Take `O=C(Nc1ccc(NS(=O)(=O)CCO)cc1N1CCC2(CC1)CC2)c1cc(N2CC(F)(F)C2)c2occc2c1` [Compound 164]: the IC50 was at most 100 nM.

With `O=C(Nc1ccc(S(=O)(=O)NCCO)cc1N1CCC2(CC1)CC2)c1cc(OC2CCC2)c2occc2c1` [Compound 183], the IC50 is at most 100 nM.

Consider `O=C(Nc1cc2ccnn2c(N2CCC(F)(F)CC2)n1)c1ccc(NS(=O)(=O)CCO)cc1N1CCC2(CC1)CC2` [Compound 534], for which the IC50 is at most 100 nM.

For `O=C(Nc1ccc(NS(=O)(=O)CCO)cc1N1CCC2(CC1)CC2)c1cc2c(c(N3CCC(F)(F)CC3)c1)OCCC2` [Compound 545], the IC50 is at most 100 nM.

As for `O=C(Nc1cc(N2CC3CC3C2)c2occc2c1)c1ccc(S(=O)(=O)NCCO)cc1N1CCC2(CC1)CC2` (stereo not shown) [Compound 154], the IC50 is at most 100 nM.

With `CN1CCc2cc(C(=O)Nc3ccc(NS(=O)(=O)CCO)cc3N3CCC4(CC3)CC4)cc(N3CCC(F)CC3)c21` [Compound 297], the IC50 is at most 100 nM.

In the case of `Cn1ccc2cc(NC(=O)c3ccc(NS(=O)(=O)CCO)cc3N3CCC4(CC3)CC4)cc(N3CC4CC4C3)c21` (stereo not shown) [Compound 394], the concentration for half-maximal inhibition (IC50) is at most 100 nM.

For `CN1CCc2cc(C(=O)Nc3ccc(NS(=O)(=O)CCO)cc3N3CCC4(CC3)CC4)nc(OCCC(F)(F)F)c21` [Compound 357], the IC50 is at most 100 nM.

Consider `Cn1ccc2cc(C(=O)Nc3ccc(S(=O)(=O)NCCO)cc3N3CCC4(CC3)CC4)cc(OC3CCC3)c21` [Compound 439], for which the IC50 is at most 100 nM.

As for `CN1CCc2cc(NC(=O)c3ccc(NS(=O)(=O)CCO)cc3N3CCC4(CC3)CC4)nc(N3CC(F)(F)C3)c21` [Compound 324], the IC50 is at most 100 nM.

For `CN1CCc2cc(C(=O)Nc3ccc(S(=O)(=O)NCCO)cc3N3CCC4(CC3)CC4)cc(N3CCC(F)CC3)c21` [Compound 313], the IC50 was at most 100 nM.

For `C[C@H](CO)S(=O)(=O)Nc1ccc(NC(=O)c2cc3ccoc3c(N3CCC(F)(F)CC3)n2)c(N2CCC3(CC2)CC3)c1` [Compound 238], the IC50 was at most 100 nM.

Take `O=C(Nc1cc(N2CC(F)(F)C2)c2occc2c1)c1ccc(S(=O)(=O)NCCO)cc1N1CCC2(CC1)CC2` [Compound 148]: the IC50 was at most 100 nM.

On to `Cn1ccc2cc(C(=O)Nc3ccc(NS(=O)(=O)CCO)cc3N3CCC4(CC3)CC4)nc(NC(C)(C)CO)c21` [Compound 491], for which the IC50 is at most 100 nM.

For `O=C(Nc1cc2c(c(N3CCC(F)(F)CC3)c1)CCC2)c1ccc(NS(=O)(=O)CCO)cc1N1CCC2(CC1)CC2` [Compound 532], the IC50 is at most 100 nM.

As for `C[C@@H]1CN(c2cc(C(=O)Nc3ccc(NS(=O)(=O)[C@H](C)CO)cc3N3CCC4(CC3)CC4)cc3c2N(C)CC3)CCO1` [Compound 304], the IC50 is at most 100 nM.

Regarding `C[C@@H]1CN(c2nc(C(=O)Nc3ccc(S(=O)(=O)NCCO)cc3N3CCC4(CC3)CC4)cc3c2N(C)CC3)CCO1` [Compound 370], the IC50 is at most 100 nM.

Regarding `C[C@H](CO)NS(=O)(=O)c1ccc(C(=O)Nc2cc3ccoc3c(N3CCO[C@H](C)C3)n2)c(N2CCC3(CC2)CC3)c1` [Compound 224], the IC50 is at most 100 nM.

Turning to `Cn1ccc2cc(NC(=O)c3ccc(S(=O)(=O)NCCO)cc3N3CCC4(CC3)CC4)nc(OC3CCC3)c21` [Compound 471], the IC50 was at most 100 nM.

Regarding `O=C(Nc1cc2c(c(N3CCC(F)(F)CC3)c1)OCC2)c1ccc(S(=O)(=O)NCCO)cc1N1CCC2(CC1)CC2` [Compound 17], the IC50 is at most 100 nM.

As to `CN1CCc2cc(NC(=O)c3ccc(S(=O)(=O)NCCO)cc3N3CCC4(CC3)CC4)nc(N3CC4CC4C3)c21` (stereo not shown) [Compound 346], the IC50 is at most 100 nM.

In the case of `C[C@@H](CO)S(=O)(=O)Nc1ccc(NC(=O)c2cc3c(c(N4CCC(F)(F)CC4)n2)N(C)CC3)c(N2CCC3(CC2)CC3)c1` [Compound 365], the IC50 was at most 100 nM.

Turning to `C[C@@H]1CN(c2nc(NC(=O)c3ccc(NS(=O)(=O)[C@@H](C)CO)cc3N3CCC4(CC3)CC4)cc3c2N(C)CC3)CCO1` [Compound 335], the IC50 was at most 100 nM.

As for `Cn1ccc2cc(C(=O)Nc3ccc(S(=O)(=O)NCCO)cc3N3CCC4(CC3)CC4)cc(NC(C)(C)CO)c21` [Compound 443], the IC50 is at most 100 nM.

Regarding `CC(C)(CO)Nc1nc(NC(=O)c2ccc(S(=O)(=O)NCCO)cc2N2CCC3(CC2)CC3)cc2c1OCC2` [Compound 91], the IC50 was at most 100 nM.

Take `CN1CCc2cc(NC(=O)c3ccc(NS(=O)(=O)CCO)cc3N3CCC4(CC3)CC4)cc(N3CCC(F)CC3)c21` [Compound 265]: the IC50 was at most 100 nM.

Take `C[C@@H](CO)NS(=O)(=O)c1ccc(C(=O)Nc2cc3c(c(N4CCC(F)(F)CC4)n2)N(C)CC3)c(N2CCC3(CC2)CC3)c1` [Compound 349]: the IC50 is at most 100 nM.

On to `CN1CCc2cc(NC(=O)c3ccc(NS(=O)(=O)CCO)cc3N3CCC4(CC3)CC4)nc(OCCC(F)(F)F)c21` [Compound 325], for which the IC50 was at most 100 nM.

For `CN1CCc2cc(C(=O)Nc3ccc(NS(=O)(=O)CCO)cc3N3CCC4(CC3)CC4)cc(OCCC(F)(F)F)c21` [Compound 293], the IC50 was at most 100 nM.

As to `CC(C)(CO)Nc1nc(NC(=O)c2ccc(NS(=O)(=O)CCO)cc2N2CCC3(CC2)CC3)cc2c1OCC2` [Compound 75], the IC50 was at most 100 nM.

`C[C@@H]1CN(c2cc(C(=O)Nc3ccc(S(=O)(=O)N[C@@H](C)CO)cc3N3CCC4(CC3)CC4)cc3c2N(C)CC3)CCO1` [Compound 319]: the IC50 is at most 100 nM.

Turning to `Cn1ccc2cc(NC(=O)c3ccc(S(=O)(=O)NCCO)cc3N3CCC4(CC3)CC4)nc(N3CC(F)(F)C3)c21` [Compound 468], the IC50 is at most 100 nM.

Consider `CC(C)(CO)Nc1nc(NC(=O)c2ccc(NS(=O)(=O)CCO)cc2N2CCC3(CC2)CC3)cc2ccoc12` [Compound 203], for which the IC50 is at most 100 nM.

Turning to `C[C@H](CO)S(=O)(=O)Nc1ccc(C(=O)Nc2cc3c(c(N4CCC(F)(F)CC4)n2)N(C)CC3)c(N2CCC3(CC2)CC3)c1` [Compound 334], the IC50 is at most 100 nM.

As for `O=C(Nc1cc2c(c(N3CC(F)(F)C3)n1)OCC2)c1ccc(S(=O)(=O)NCCO)cc1N1CCC2(CC1)CC2` [Compound 84], the IC50 was at most 100 nM.

With `C[C@@H](CO)S(=O)(=O)Nc1ccc(C(=O)Nc2cc3ccn(C)c3c(N3CCC(F)(F)CC3)n2)c(N2CCC3(CC2)CC3)c1` [Compound 461], the IC50 was at most 100 nM.

For the molecule `Cn1ccc2cc(NC(=O)c3ccc(NS(=O)(=O)CCO)cc3N3CCC4(CC3)CC4)cc(OCCC(F)(F)F)c21` [Compound 389], the IC50 was at most 100 nM.
